Source: article PMC12220853, “Natural aminosterols inhibit NMDA receptors with low nanomolar potency” (The Febs Journal, 2025)
pIC50: −log10 of the molar value.

Target: T1, N-methyl-D-aspartate receptor (NMDAR), native in hippocampal neurons (Rattus norvegicus, UniProt P35439+Q00959+Q00960)
T1 construct: gene Grin1; native heteromeric receptor in primary rat hippocampal neurons; with GluN2A / GluN2B (native mixture, mostly GluN1/2A/2B)
Experiment: whole-cell patch clamp of NMDA-activated currents in primary rat hippocampal neurons ([…] NMDA, […] glycine)
Assay type: cell-based

T1 sequence (Q00959 23-1464, other chains not shown): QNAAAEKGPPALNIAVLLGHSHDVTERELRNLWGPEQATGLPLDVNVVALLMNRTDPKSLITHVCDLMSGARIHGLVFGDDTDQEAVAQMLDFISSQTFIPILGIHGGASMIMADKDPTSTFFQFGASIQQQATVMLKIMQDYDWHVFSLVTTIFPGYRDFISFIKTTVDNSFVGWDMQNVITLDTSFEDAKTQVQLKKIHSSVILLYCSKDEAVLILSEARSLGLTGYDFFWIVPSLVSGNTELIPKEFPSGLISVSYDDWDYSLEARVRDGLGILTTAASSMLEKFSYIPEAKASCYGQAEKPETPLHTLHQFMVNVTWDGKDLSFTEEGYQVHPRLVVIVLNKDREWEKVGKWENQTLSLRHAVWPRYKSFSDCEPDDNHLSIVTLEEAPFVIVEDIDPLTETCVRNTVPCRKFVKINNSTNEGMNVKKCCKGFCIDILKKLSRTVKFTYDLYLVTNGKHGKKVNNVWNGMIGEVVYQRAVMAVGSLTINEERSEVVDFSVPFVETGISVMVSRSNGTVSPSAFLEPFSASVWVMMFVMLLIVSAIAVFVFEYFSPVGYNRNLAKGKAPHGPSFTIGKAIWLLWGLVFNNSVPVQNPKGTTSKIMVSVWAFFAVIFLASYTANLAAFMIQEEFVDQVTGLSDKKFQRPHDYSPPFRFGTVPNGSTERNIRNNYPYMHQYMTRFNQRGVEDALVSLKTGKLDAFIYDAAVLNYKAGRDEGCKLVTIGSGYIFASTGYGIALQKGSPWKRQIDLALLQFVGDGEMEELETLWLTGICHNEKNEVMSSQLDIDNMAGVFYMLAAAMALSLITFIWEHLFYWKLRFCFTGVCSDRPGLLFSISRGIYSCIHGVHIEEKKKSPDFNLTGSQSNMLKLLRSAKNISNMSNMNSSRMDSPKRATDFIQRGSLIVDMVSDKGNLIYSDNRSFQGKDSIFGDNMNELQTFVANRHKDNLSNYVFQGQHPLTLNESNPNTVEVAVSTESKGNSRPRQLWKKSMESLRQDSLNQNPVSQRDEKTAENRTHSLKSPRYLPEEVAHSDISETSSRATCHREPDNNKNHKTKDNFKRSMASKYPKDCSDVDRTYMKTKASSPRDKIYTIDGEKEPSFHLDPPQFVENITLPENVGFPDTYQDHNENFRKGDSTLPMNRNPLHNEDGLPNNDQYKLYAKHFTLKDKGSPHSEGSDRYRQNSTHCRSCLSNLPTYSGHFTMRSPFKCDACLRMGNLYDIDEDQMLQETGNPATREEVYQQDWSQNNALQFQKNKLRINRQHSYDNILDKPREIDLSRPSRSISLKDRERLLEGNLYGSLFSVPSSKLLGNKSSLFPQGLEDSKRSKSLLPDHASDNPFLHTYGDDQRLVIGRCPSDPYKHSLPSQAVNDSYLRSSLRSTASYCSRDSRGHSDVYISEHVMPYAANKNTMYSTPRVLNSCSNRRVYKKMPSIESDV
T1 sequence (Q00960 27-1482, other chains not shown): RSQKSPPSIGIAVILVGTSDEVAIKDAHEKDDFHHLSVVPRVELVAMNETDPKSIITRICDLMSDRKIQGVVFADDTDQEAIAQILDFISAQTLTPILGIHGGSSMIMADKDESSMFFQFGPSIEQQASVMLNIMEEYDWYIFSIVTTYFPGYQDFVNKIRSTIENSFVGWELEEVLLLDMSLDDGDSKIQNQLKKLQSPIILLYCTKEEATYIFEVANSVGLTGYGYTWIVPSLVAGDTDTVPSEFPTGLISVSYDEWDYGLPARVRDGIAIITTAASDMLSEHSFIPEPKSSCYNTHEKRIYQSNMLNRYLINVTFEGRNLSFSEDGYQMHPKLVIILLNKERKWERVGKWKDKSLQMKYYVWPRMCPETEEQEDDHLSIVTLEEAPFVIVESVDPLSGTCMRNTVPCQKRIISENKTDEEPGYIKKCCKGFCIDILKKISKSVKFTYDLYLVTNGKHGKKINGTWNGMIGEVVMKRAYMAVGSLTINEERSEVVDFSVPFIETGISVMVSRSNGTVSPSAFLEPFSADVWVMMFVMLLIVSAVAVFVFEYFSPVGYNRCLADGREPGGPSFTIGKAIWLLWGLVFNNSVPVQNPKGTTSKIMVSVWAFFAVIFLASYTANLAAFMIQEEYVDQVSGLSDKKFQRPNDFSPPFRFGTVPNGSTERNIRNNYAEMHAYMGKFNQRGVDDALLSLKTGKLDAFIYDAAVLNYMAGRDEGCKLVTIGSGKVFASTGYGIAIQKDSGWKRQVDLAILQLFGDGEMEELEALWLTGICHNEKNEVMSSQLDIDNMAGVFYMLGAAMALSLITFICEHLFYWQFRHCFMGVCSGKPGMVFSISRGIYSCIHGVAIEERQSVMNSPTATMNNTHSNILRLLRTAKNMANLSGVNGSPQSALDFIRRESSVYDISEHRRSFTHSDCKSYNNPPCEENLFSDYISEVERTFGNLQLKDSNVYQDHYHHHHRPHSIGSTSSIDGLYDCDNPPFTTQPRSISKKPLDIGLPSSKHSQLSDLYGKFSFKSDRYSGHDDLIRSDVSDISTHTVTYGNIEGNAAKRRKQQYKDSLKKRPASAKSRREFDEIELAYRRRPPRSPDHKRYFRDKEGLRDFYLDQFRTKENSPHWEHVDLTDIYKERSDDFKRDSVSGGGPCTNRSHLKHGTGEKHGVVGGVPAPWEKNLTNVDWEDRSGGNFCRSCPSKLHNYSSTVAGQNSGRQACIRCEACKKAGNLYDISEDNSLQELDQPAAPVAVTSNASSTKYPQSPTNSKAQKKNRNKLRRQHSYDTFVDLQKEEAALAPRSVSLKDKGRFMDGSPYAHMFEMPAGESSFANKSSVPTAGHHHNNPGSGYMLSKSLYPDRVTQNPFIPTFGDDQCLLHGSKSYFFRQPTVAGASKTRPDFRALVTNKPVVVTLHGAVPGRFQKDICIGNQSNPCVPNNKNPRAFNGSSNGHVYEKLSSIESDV

CC(C)[C@@H](CC[C@@H](C)[C@H]1CC[C@H]2[C@@H]3[C@H](O)C[C@H]4C[C@@H](NCCCNCCCCNCCCN)CC[C@]4(C)[C@H]3CC[C@]12C)OS(=O)(=O)O [TRO, trodusquemine]
pIC50: 8.29
